The values that follow are results of earlier work, collected in patent EP4092126A1, “A METHOD OF ENZYMATIC REDUCTION OF THE OXIDIZED NICOTINAMIDE ADENINE DINUCLEOTIDE AND CARBOXYLIC ACIDS” (priority 2021, dated 2022).

Where two headings read alike, the source gives them in different places.

What is called Km is the concentration of substrate that gives half-maximal velocity. For orientation: Ki means a measure of affinity in units of concentration, obtained from inhibition or displacement.

Data set [1] concerns [NiFe] dehydrogenase from Ralstonia eutropha. The conditions noted are these: same Km expressed as per cent H2.
The target of data set [2] is [NiFe] dehydrogenase from Ralstonia eutropha (Cupriavidus necator, UniProt P22317+P22320).
The test system of data set [3] is tungsten aldehyde oxidoreductase (AOR) from A. aromaticum. The conditions noted are these: 1 mM benzaldehyde, re-oxidized with NAD+, pH 8.0, 28°C, anaerobic conditions.
Data set [4] concerns the target AOR enzyme from Thermococcus strain ES-1. The conditions noted are these: reducing acetic acid to acetaldehyde with reduced methyl viologen.
Data set [5] concerns the target T1, phosphine dehydrogenase (PTDH) (Stutzerimonas stutzeri, UniProt O69054).
T1 sequence (O69054 1-336): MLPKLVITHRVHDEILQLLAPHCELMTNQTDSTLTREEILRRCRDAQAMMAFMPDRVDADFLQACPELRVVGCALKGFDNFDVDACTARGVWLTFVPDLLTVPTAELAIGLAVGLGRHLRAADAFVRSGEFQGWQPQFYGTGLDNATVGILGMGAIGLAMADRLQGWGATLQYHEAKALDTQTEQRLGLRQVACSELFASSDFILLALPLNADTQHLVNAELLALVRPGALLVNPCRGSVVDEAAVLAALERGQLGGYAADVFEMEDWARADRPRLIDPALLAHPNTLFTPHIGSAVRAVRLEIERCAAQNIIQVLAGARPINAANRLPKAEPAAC
The conditions noted are these: read-out: Km (NAD^+).

The target of data set [6] is T2, AOR (Aromatoleum aromaticum, UniProt Q5P142+Q5P143).
T2 sequence (Q5P143 1-616): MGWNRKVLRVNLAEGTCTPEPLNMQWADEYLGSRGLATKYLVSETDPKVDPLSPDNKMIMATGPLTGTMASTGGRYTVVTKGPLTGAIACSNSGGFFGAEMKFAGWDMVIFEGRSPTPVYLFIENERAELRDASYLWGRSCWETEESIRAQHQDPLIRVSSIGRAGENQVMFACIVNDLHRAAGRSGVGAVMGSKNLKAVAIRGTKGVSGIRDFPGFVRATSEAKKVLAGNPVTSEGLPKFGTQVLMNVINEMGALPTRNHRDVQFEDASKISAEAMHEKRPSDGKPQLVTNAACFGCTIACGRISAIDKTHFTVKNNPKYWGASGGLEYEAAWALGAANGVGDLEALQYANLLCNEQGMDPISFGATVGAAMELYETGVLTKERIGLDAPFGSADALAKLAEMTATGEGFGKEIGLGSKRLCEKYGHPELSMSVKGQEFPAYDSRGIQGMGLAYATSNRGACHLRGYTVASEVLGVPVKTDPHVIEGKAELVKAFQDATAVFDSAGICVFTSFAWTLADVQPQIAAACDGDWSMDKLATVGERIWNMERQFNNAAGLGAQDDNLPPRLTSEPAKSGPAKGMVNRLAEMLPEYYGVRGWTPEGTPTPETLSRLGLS
T2 sequence (Q5P142 1-424): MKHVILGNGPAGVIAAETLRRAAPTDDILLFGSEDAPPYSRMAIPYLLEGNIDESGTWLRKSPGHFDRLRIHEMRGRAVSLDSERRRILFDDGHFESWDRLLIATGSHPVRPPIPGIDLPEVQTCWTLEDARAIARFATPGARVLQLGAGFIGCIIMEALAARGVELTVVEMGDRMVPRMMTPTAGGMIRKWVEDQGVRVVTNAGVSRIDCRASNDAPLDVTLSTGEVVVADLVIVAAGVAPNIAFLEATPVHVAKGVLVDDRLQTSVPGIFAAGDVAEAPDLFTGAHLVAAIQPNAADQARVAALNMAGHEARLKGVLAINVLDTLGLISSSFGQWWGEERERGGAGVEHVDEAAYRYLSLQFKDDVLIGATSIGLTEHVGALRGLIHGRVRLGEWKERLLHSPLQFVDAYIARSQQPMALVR
T2 sequence (Q5P144 1-158 partner): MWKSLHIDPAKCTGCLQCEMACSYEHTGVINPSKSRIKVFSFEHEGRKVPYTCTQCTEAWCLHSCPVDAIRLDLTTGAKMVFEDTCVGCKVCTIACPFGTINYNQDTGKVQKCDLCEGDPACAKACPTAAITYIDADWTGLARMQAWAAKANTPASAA
The conditions noted are these: 1 mM benzaldehyde, pH 8.0, 28°C, anaerobic; read-out: Km versus NAD^+.

Sequence of [NiFe] dehydrogenase from Ralstonia eutropha (Cupriavidus necator, UniProt P22317+P22320) (P22318 whole entry): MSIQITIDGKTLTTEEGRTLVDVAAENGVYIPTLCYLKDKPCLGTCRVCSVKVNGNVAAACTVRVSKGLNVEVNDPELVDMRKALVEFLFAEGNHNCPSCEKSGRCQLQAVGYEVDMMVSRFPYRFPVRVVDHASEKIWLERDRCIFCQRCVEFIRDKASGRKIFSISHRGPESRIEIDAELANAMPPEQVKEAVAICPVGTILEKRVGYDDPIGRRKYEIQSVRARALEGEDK
Sequence of [NiFe] dehydrogenase from Ralstonia eutropha (Cupriavidus necator, UniProt P22317+P22320) (P22320 1-464): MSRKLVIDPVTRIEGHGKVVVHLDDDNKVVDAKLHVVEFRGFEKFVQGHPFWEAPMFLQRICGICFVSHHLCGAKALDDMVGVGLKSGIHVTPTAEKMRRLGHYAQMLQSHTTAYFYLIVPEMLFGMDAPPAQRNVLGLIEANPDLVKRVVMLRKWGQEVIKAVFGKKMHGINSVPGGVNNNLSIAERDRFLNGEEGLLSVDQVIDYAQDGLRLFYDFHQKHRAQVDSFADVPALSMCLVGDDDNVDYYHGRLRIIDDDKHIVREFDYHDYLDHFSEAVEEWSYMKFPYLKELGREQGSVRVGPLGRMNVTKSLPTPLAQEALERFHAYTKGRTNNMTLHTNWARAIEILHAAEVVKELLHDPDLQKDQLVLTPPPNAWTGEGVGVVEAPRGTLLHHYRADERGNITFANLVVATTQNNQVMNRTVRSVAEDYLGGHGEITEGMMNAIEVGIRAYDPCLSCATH
Sequence of [NiFe] dehydrogenase from Ralstonia eutropha (Cupriavidus necator, UniProt P22317+P22320) (P22319 whole entry, further chain): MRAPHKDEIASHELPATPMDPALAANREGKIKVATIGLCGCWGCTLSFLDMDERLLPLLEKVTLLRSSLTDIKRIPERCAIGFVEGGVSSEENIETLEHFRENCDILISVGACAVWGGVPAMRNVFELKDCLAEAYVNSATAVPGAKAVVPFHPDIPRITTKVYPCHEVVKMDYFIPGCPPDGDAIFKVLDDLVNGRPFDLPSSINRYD
Sequence of [NiFe] dehydrogenase from Ralstonia eutropha (Cupriavidus necator, UniProt P22317+P22320) (P22317 whole entry): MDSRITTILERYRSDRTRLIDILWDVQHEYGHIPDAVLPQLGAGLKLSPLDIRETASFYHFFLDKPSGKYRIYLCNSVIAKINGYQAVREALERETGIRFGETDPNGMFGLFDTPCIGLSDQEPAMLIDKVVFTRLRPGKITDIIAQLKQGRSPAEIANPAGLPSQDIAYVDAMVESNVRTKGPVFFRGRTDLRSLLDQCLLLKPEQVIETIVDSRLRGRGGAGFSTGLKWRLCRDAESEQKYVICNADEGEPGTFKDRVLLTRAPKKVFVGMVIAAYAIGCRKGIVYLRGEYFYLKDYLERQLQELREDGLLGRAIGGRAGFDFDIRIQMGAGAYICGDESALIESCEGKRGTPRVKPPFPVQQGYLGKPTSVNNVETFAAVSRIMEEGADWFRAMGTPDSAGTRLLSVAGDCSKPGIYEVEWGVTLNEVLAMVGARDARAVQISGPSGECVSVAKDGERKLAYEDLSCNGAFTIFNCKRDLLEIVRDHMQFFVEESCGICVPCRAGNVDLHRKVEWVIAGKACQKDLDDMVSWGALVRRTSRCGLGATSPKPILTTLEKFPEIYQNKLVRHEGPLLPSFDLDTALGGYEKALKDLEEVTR

In the case of hydrogen [H2], the “Km (hydrogen), as H2 content” value in data set [1] is on record as 1.4-5 % H2.

For `[HH]` [hydrogen], the Km in data set [2] (1.4-5% H2, read-out: Km (hydrogen)) is 11 to 37 µM. Further, the inhibition constant (Ki) in data set [2] (hyperbaric conditions, read-out: Ki (inhibition by H2)) was 1460 µM. Take `NC(=O)c1ccc[n+]([C@@H]2O[C@H](COP(=O)([O-])OP(=O)(O)OC[C@H]3O[C@@H](n4cnc5c(N)ncnc54)[C@H](O)[C@@H]3O)[C@@H](O)[C@H]2O)c1` [NAD+, nicotinamide adenine dinucleotide]: the “maximum observed reaction rate, Vmax” value in data set [3] was 12.5 mM/min/mg.

For `CC(=O)O` [acetic acid], the “kinetic rate constant (kcat)” value in data set [4] is 1.6 turnovers of the catalyzed reaction per second. Regarding `NC(=O)c1ccc[n+]([C@@H]2O[C@H](COP(=O)([O-])OP(=O)(O)OC[C@H]3O[C@@H](n4cnc5c(N)ncnc54)[C@H](O)[C@@H]3O)[C@@H](O)[C@H]2O)c1` [NAD^+, nicotinamide adenine dinucleotide], the Michaelis-Menten constant (Km) in data set [5] is 53 µM; in data set [2] (read-out: Km (NAD^+)) it was 560 µM; in data set [6], 63 µM.
